This note sets out measurements from US5846942A, “Cholecystokinin antagonists, their preparation and therapeutic use” (Warner-Lambert Company, priority 1996, dated 1998).

This test deals with T1, Central CCK Receptors (Mus musculus, UniProt P56481).
T1 construct: from tissue; host or cells: cerebral cortex membranes of male CFLP mice (30-40 g)
T1 sequence (P56481 1-453): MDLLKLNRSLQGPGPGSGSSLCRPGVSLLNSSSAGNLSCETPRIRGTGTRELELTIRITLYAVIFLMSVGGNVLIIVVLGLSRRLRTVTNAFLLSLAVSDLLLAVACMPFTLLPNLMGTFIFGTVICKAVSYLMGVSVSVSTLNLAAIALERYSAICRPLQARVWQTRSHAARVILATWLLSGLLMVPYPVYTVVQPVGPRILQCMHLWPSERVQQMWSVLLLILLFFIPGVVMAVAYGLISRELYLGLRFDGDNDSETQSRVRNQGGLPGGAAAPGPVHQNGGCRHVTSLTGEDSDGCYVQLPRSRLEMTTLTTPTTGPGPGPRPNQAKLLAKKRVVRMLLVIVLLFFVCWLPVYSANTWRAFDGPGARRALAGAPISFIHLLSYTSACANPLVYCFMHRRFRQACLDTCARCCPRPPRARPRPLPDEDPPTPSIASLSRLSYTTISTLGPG
As to the kind of experiment: Binding to central CCK receptors, displacement of tritiated pentagastrin from cerebral cortical membranes of male CFLP mice. More on the design: species or system mouse (male CFLP). The conditions noted are these: cerebral cortexes taken from male CFLP mice; 2 nM tritiated-pentagastrin. The protocol: The biological activity of compounds of the present invention was evaluated employing an initial screening test which rapidly and accurately measured the binding of the tested compound to known CCK receptor sites. […] (See Hays et al, Neuropeptides 1:53-62, 1980; and Satuer et al, Science 208:1155-1156, 1980).
In this screening test, the cerebral cortices taken from male CFLP mice weighing between 30-40 g were dissected on ice, weighed, and homogenized in 10 volumes of 50 mM Tris-HCl buffer (pH 7.4 at 0°-4° C.). The resulting suspension was centrifuged, the supernate was discarded, and the pellet was washed by resuspension in Tris-HCl buffer followed by recentrifugation. The final pellet was resuspended in 20 volumes of […] Hepes buffer (pH 7.2 at 23° C.) containing 130 mM NaCl, […] KCl, […] MgCl2, […] EDTA, 5 mg/mL bovine albumin, and bacitracin (0.25 mg/mL).
In saturation studies, cerebral cortical membranes were incubated at 23° C. for 120 minutes in a final volume of 500 μL of Hepes incubation buffer (pH 7.2) together with […] tritiated-pentagastrin (Amersham International, England).
In the displacement experiments, membranes were incubated with a single concentration (2 nM) of ligand, together with increasing concentrations (10^-11 to […]) of competitive test compound. In each case, the nonspecific binding was defined as that persisting in the presence of the unlabeled octapeptide CCK26-33 (10^-6 M)
Following incubation, radioactivity bound to membranes was separated from that free in solution by rapid filtration through Whatman GF/B filters and washed three times with 4 mL of ice cold Tris-HCl buffer. Filters from samples incubated with tritiated-pentagastrin were placed in polyethylene vials with 4 mL of scintillation cocktail, and the radioactivity was estimated by liquid scintillation spectrometry (efficiency 47-52%).
Saturation curves for specific tritiated- pentagastrin binding to mouse cortical membranes were analyzed by the methods of Scatchard (Ann. New York Acad. Sci. 51:660-672, 1949, and Hill (J. Physiol. 40:IV-VIII, 1910), to provide estimates for the maximum number of binding sites (Bmax) and the equilibrium dissociation constant (Ka).
In displacement experiments, inhibition curves were analyzed by either logit-log plots or the iterative curve fitting computer program ALLFIT (DeLean, Munson and Redbard, 1978) to provide estimates of the IC50 and nH (apparent Hill coefficient) values).
The inhibition constant (Ki) of the test compound was then calculated according to the Cheng-Prusoff equation: [formula] where [L] is the concentration of radiolabel and Ka is the equilibrium dissociation constant.

By Ki is commonly meant a dissociation constant, usually derived from enzyme kinetics or from competition with a known ligand. Low readings indicate tighter binding, high ones weaker binding. As to `CC(=O)N(C[C@@](C)(Cc1c[nH]c2ccccc12)NC(=O)OC1C2CC3CC(C2)CC1C3)[C@H](CO)Cc1ccccc1` (stereo partly drawn) [Example 8, Tricyclo[3.3.1.1^3,7]dec-2-yl[R-(R*,S*)]-[acetyl[1-(hydroxymethyl)-2-phenylethyl]amino]-2-(1H-indol-3-ylmethyl)prop-2-ylcarbamate], the Ki was determined as 318 nM. This lies in the sub-micromolar range. In the case of `C[C@@](Cc1c[nH]c2ccccc12)(NC(=O)OC1C2CC3CC(C2)CC1C3)C(=O)NCCC(=O)N[C@@H](Cc1ccccc1)C(=O)OCc1ccccc1` (stereo partly drawn) [Example 31, Propanoic acid, 2-[[3-[[3-(1H-indol-3-yl)-2-methyl-1-oxo-2-[[(tricyclo[3.3.1.1^3,7]dec-2-yloxy)carbonyl]amino]propyl]amino]-1-oxopropyl]-amino]-3-phenyl-, phenylmethyl ester, [S-(R*,R*)]-] it was 1200 nM; in that of `CC(CNC(=O)O[C@@H]1C[C@@H]2CC[C@@]1(C)C2(C)C)(Cc1c[nH]c2ccccc12)C(=O)N[C@H](COC(=O)CCC(=O)O)Cc1ccccc1` (stereo partly drawn) [Example 56, Butanedioic acid, mono 2-[[2-(1H-indol-3-ylmethyl)-2-methyl-1-oxo-3-[[(1,7,7-trimethylbicyclo[2.2.1]hept-2-yloxy)carbonyl]-amino]propyl]amino]-3-phenylpropyl ester (Bicyclo system is 1S-endo, phenvlmethyl center is S. other center is RS)], 23 nM; in that of `COC[C@@H]1CCCN1NC(=O)[C@@](C)(Cc1c[nH]c2ccccc12)NC(=O)OC1C2CC3CC(C2)CC1C3` (stereo partly drawn) [Example 112, Tricyclo[3.3.1.1^3.7]dec-2-yl ester [2S-(R*,S*)1 N-[1-(1H-indol-3-ylmethyl)-2-[[2-(methoxymethyl)-1-pyrrolidinyl]amino]-1-methyl-2-oxoethyl]carbamate], 73 nM. The same measure for `O=C(N[C@@H](CN[C@H](CO)Cc1ccccc1)Cc1c[nH]c2ccccc12)OC1C2CC3CC(C2)CC1C3` (stereo partly drawn) [Example 1, Tricyclo[3.3.1.1^3,7]dec-2-yl[S-(R)]-[2-[[1 - (hydroxy-methyl)-2-phenylethyl]amino]-1-(1H-indol-3-ylmethyl)ethyl]carbamate]: 11500 nM. The same measure for `C[C@](Cc1c[nH]c2ccccc12)(NC(=O)OC1C2CC3CC(C2)CC1C3)C(=O)NCC(=O)OCc1ccccc1` (some centres unmarked) [Example 36]: 50 nM; for `C[C@](Cc1c[nH]c2ccccc12)(NC(=O)OC1C2CC3CC(C2)CC1C3)C(=O)NC1CC2CCC1C2` (some centres unmarked) [Example 118, Tricyclo[3.3.1.1^3,7]dec-2yl ester [2-(bicyclo[2.2.1]hept-2-ylamino)-1-(1H-indol-3-ylmethyl)-1-methyl-2-oxoethyl]carbamate]: 53 nM. The molecule `C[C@](Cc1c[nH]c2ccccc12)(NC(=O)OC1C2CC3CC(C2)CC1C3)C(=O)NC1(CO)CCCCC1` (some centres unmarked) [Example 122] returned a Ki of 59 nM. The same measure for `C[C@](Cc1c[nH]c2ccccc12)(NC(=O)OC1C2CC3CC(C2)CC1C3)C(=O)NC1(C(=O)O)CCCCC1` (stereo partly drawn) [Example 120, (R)-1-[[2-(1H-indol-3-ylmethyl)-2-methyl-1-oxo-2-[[(tricyclo[3.3.1.1^3,7]dec-2-yloxy)carbonyl]amino]ethyl]amino]cyclohexanoic acid]: 40 nM; for `C[C@](Cc1c[nH]c2ccccc12)(NC(=O)OC1C2CC3CC(C2)CC1C3)C(=O)NC1(CO)CCCC1` (stereo partly drawn) [Example 119, Tricyclo[3.3.1.1^3,7]dec-2-yl ester (R) [2-[[1-(hydroxymethyl)cyclopentyl]amino]-1-(1H-indol-3-ylmethyl)-1-methyl-2-oxoethyl]carbamate]: 180 nM.

For the molecule `C[C@@](Cc1c[nH]c2ccccc12)(NC(=O)OC1C2CC3CC(C2)CC1C3)C(=O)NCCC(=O)N[C@H](Cc1ccccc1)C(=O)O` (stereo partly drawn) [Example 35, Benzenepropanoic acid, α-[[3-[[3-[(1H-indol-3-yl)-2-methyl-1-oxo-2-[[(tricyclo[3.3.1.1^3,7]dec-2-yloxy)-carbonyl]amino]propyl]amino]-1-oxopropyllamino-, [S-(R*,S*)]-], the Ki was 540 nM. Take `C[C@@](Cc1c[nH]c2ccccc12)(NC(=O)OC1C2CC3CC(C2)CC1C3)C(=O)NCCC(=O)N[C@@H](Cc1ccccc1)C(N)=O` (stereo partly drawn) [Example 27, L-Phenylalaninamide α-methyl-N-[(tricyclo[3.3.1.1^3,7]-dec-2-yloxy)carbonyl]-L-tryptophy-β-alanyl-]: affinity was put at a Ki of 910 nM. Compared with the last molecule, the Ki is about 1.7-fold higher. In the case of `COC(=O)[C@@H](Cc1ccccc1)NC(=O)CCNC(=O)[C@@](C)(Cc1c[nH]c2ccccc12)NC(=O)OC1C2CC3CC(C2)CC1C3` (stereo partly drawn) [Example 29, 12-Oxa-2,5,9-triazatridecanoic acid, 3-(1H-indol-3-ylmethyl)-3-methyl-4.8.11-trioxo-10-(phenvlmethyl)-, tricyclo[3.3.1.1^3,7]dec-2-vl ester, [R-(R*,R*)]-] it was 240 nM. In the case of `C[C@](Cc1c[nH]c2ccccc12)(NC(=O)OC1C2CC3CC(C2)CC1C3)C(=O)NCCC(=O)N[C@H](CO)Cc1ccccc1` (stereo partly drawn) [Example 23, Carbamic acid, [2-[[3-[[1-(hydroxymethyl)-2-phenyl-ethyl]amino]-3-oxopropyl]amino]-1-(1H-indol-3-ylmethyl)-1-methyl-2-oxoethyl]-, tricyclo-[3.3.1.1^3,7]dec-2-vl ester. [R-(R*.S*)]-] it was 800 nM. The same measure for `C[C@@](Cc1c[nH]c2ccccc12)(NC(=O)OC1C2CC3CC(C2)CC1C3)C(=O)NCCC(=O)N[C@@H](Cc1ccccc1)C(=O)O` (stereo partly drawn) [Example 34, L-Phenylalanine, N-[N-[α-methyl-N-[(tricyclo-[3.3.1.1^3,7]dec-2-yloxy)carbonyl]-L-tryptophyl]-β-alanyl]-]: 560 nM; for `C[C@](Cc1c[nH]c2ccccc12)(NC(=O)OC1C2CC3CC(C2)CC1C3)C(=O)NC1CCCCC1C(=O)O` (stereo partly drawn) [Example 115, [1S-[α(S*),2B]] and [1R-[α(R*),28β]]^sP 2-[[3-(1H-indol-3-yl)-2-methyl-1-oxo-2-[(tricyclo[3.3.1.1^3,7]dec-2-yloxy)carbonyl]amino]propyl]amino]cyclhexanecarboxylic acid]: 1 nM; for `COC[C@H]1CCCN1NC(=O)[C@@](C)(Cc1c[nH]c2ccccc12)NC(=O)OC1C2CC3CC(C2)CC1C3` (stereo partly drawn) [Example 113, Tricyclo [3.3.1.1^3,7]dec-2-yl [R-(R*,R*)]-[-(1H-indol-3-ylmethyl)-2-[[2-(methoxymethyl)-1-pyrrolidinyl]amino]-1-methyl-2-oxoethyl]carbamate]: 2.5 nM.
